Measurements as given in ChEMBL document CHEMBL3507680, “University of Dundee, Gates Library screen for HepG2 cell viability”.

Experiment: Human HepG2 cell viability assay in 384 well format
Assay type: toxicity, cell-based
Set-up: dose 125 nL, time 70.5 hour; cytotoxicity at 70.5 h: concentration not given beside the values
Conditions: HepG2 cells, read-out: Inhibition

| Compound | cytotoxicity at 70.5 h |
| --- | --- |
| Cc1cc(C(=O)NCCN2CCCCCC2)nn1C(C)(C)C | -4.89% |
| COCC(=O)N1CCN(C(C)c2ncc(-c3ccccc3)o2)CC1 (configuration not stated) | -13.2% |
| COc1ccccc1OC(C)CNC(=O)c1cnc[nH]1 (configuration not stated) | -21.2% |
| CC(c1ncc(-c2ccccc2)o1)N1CCN(C(=O)C(C)(C)C)CC1 (configuration not stated) | -25.9% |
| c1ccn2c(C3CCCN3Cc3nc(C4CC4)no3)nnc2c1 (configuration not stated) | -21.8% |
| COc1c(C2CCCN2Cc2cn3ccsc3n2)c(C)nn1C (configuration not stated) | -6.12% |
| CC(c1cc(F)ccc1F)N(C)CCS(=O)(=O)CCC(N)=O (configuration not stated) | -8.99% |
| CC(C)N(CCNC(=O)c1n[nH]c2ccccc12)C(C)C | -7.32% |
| COc1ccc(C(C)N2CCC(C(=O)NC3CC3)CC2)cc1Cl (configuration not stated) | -7.15% |
| CCC(=O)NC1CCCN(Cc2ccc(-n3ccnc3)cc2)C1 (configuration not stated) | -4.83% |
| O=C(CCc1ccco1)Nc1cccc(S(=O)(=O)C(F)F)c1 | -9.11% |
| O=C(c1ccc2c(c1)[nH]c(=O)n2C1CCCC1)N1CCCSCC1 | -8.62% |
| COc1ccc(C(C)N2CCC(NS(C)(=O)=O)CC2)cc1Cl (configuration not stated) | 10.5% |
| Cc1nn(C)c(C)c1C1CCCN1Cc1cn2ccsc2n1 (configuration not stated) | -0.408% |
| COc1cccc(C(O)CN2CCN(C(=O)CCC(C)C)CC2)c1 (configuration not stated) | 9.11% |
| CC(C)N(CCNC(=O)c1[nH]nc2ccc(I)cc12)C(C)C | -1.97% |
| Cc1cc(C)cc(NC(=O)N(CCC#N)CCCN(C)C)c1 | -5.53% |
| COc1cc(-c2noc(C(CC(C)C)N3CCCCC3=O)n2)ccn1 (configuration not stated) | -2.9% |
| CC(C)(C#N)C(=O)Nc1nccn1Cc1ccc(Br)cc1 | 11.2% |
| COC1CCN(C(=O)c2nn(-c3ccc(C(C)C)cc3)cc2O)CC1 | 10.9% |
| Cc1nn(C)c(Cl)c1C1CCCN1Cc1cn2ccsc2n1 (configuration not stated) | -1.16% |
| CC(=O)N1CCCCCC1C1CCN(Cc2nc(C3CC3)no2)CC1 (configuration not stated) | 0.683% |

| Compound | cytotoxicity at 70.5 h |
| --- | --- |
| OCC(O)CSCc1cn(-c2ccc(F)c(Cl)c2)nn1 (configuration not stated) | -7.46% |
| OCC(O)CSCc1cn(-c2ccc(Cl)c(Cl)c2)nn1 (configuration not stated) | -5.28% |
| Cc1ccc(-c2nc(CN(Cc3ccco3)C3CCS(=O)(=O)C3)cs2)o1 (configuration not stated) | 15.2% |
| Cc1cc(NC(=O)Cn2ccccc2=O)n(C)n1 | -11.7% |
| O=C(NCc1ccc(Cl)s1)c1ccc(N2CCOC2=O)cc1 | -7.09% |
| CC(NC(=O)CN1CCCC1=O)c1ccc(Cl)s1 (configuration not stated) | -9.58% |
| CC(NC(=O)NCCCN1CCCC1=O)c1ccc(Cl)s1 (configuration not stated) | -14.2% |
| N#Cc1ccc(N2CCCN(CC(=O)N3CCC3)CC2)cc1 | -2.99% |
| CCNC(=O)CN(CC)Cc1nc2c(F)cccc2n1CC | 21.7% |
| Cc1cnn(C2CCCN(C(=O)Cn3ccc(=O)n(C)c3=O)C2)c1 (configuration not stated) | -1.04% |
| Cc1ccccc1C1(CNC(=O)c2cccc(S(C)(=O)=O)c2)CC1 | 20.2% |
| O=C(CCC(=O)c1ccccc1)NC1(C(=O)NCC2CC2)CCCC1 | -9.03% |
| O=C(Cc1cccs1)NC1(C(=O)NCC2CC2)CCCC1 | -7.33% |
| Cc1noc(-c2cccnc2N(C)Cc2cscn2)n1 | -5.46% |
| Cc1c(C2NC3(CCCC3)C(=O)N2CC2CC2)cc(C#N)n1C (configuration not stated) | -8.72% |
| CC(=O)Nc1cccc(Cn2nc(C)nc2C)c1 | -6.2% |
| Cc1noc(-c2cccnc2N(C)Cc2ccc([S+](C)[O-])cc2)n1 (configuration not stated) | -3.37% |
| c1ccc(CC2(CNCc3ncc[nH]3)CCC2)cc1 | -2.49% |
| CCN1C(=O)C2(CCCCC2)NC1c1cc(C#N)n(C)c1C (configuration not stated) | -8.35% |
| N#Cc1ccc(CN(CC(N)=O)C2CCCC2)c(Br)c1 | -6.26% |
| Cc1csc(C2(NCc3nc(-c4ccco4)no3)CCCC2)n1 | -12.8% |
| Cc1ncsc1C(=O)N1CC(C)Sc2ccccc21 (configuration not stated) | -8.57% |

| Compound | cytotoxicity at 70.5 h |
| --- | --- |
| Cc1nc(CN2CCCC(Nc3ncnc4ccccc34)C2)no1 (configuration not stated) | -5.36% |
| CN(Cc1ccc(Cl)s1)C(=O)CN(C)C1CCCc2ccccc21 (configuration not stated) | -4.74% |
| O=C(Cc1cccc(F)c1)N1CCc2ncnc(NC3CCC3)c2CC1 | 2.52% |
| O=C(NCc1cccc(F)c1)N1CCc2ncnc(NC3CC3)c2CC1 | 1.62% |
| CO[C@H]1CO[C@@]2(CCCN(C(=O)N(C)C)C2)C1 | -3.18% |
| CCS(=O)(=O)N1CCC2(CC1)c1ncc(-c3cccnc3)n1CCN2C | -5.3% |
| CS(=O)(=O)N1CC[C@H]2OCC[C@@]2(C(=O)NCC2CC2)C1 | -7.08% |
| CC(C)n1c2ccccc2c2c1cc(C(=O)NCCO)n2C(=O)N(C)C | -4.08% |
| CC(=O)N1CCO[C@@H]2CN(C(=O)NCc3ccccc3)CC[C@@H]2C1 | 9.54% |
| CN1CCO[C@@H]2CN(C(=O)NCc3cccc(F)c3)CC[C@@H]2C1 | -3.54% |
| CC(=O)N1CCc2nc(-c3ccccc3)nc(NC(C)C)c2CC1 | -13.5% |
| CN1CC[C@]2(CN(S(C)(=O)=O)C[C@H]2c2ccccc2)C1=O | 3.8% |
| CC(=O)N1CC[C@H]2OCC[C@@]2(C(=O)NCc2cnc(C)cn2)C1 | -5.25% |
| CC(=O)N1C[C@@H]2CN(S(=O)(=O)C3CC3)CCO[C@@H]2C1 | -1.33% |
| CCOC[C@@]12CCC[C@@H]1CN(C(=O)c1ccc(OC)cc1)C2 | 4.26% |
| CNC(=O)C1Cn2ccnc2C2(CCN(C(=O)NC3CCCC3)CC2)O1 (configuration not stated) | -9.83% |
| CCn1ncc2c1C(COC)N(C(=O)Cc1cccs1)CC2 (configuration not stated) | -0.61% |
| Cc1cnc(CNC(=O)[C@@]23CCO[C@@H]2CCN(c2ncccn2)C3)cn1 | -12.7% |
| CCOCC1CN(S(C)(=O)=O)Cc2nn(C)cc21 (configuration not stated) | -3.61% |
| O=C(OCc1ccccc1)N1CC[C@H]2CC(CO)O[C@@H]2C1 (some centres not stated) | 4.61% |
| Cc1ccc(N2CCCC3(CCN(C(=O)c4sccc4C)C3)C2)nn1 (configuration not stated) | -4.03% |
| CNC(=O)[C@H]1C[C@@H]2CN(C(=O)c3ccncc3F)C[C@@H]2N1C | -16.9% |

| Compound | cytotoxicity at 70.5 h |
| --- | --- |
| Cc1ccc(N2CCCC3(CCN(C(=O)NC4CCCC4)C3)C2)nn1 (configuration not stated) | -12.8% |
| Cc1ccc(C(=O)N2CCC3(CCCN(c4ccc(C)nn4)C3)C2)cn1 (configuration not stated) | -10.8% |
| COCC1CN(C(=O)CC2=CCCCC2)Cc2nnn(CC3CC3)c21 (configuration not stated) | -12% |
| Cc1nc(N2CCOCC2)nc2c1CCN(C(=O)C1(C#N)CC1)CC2 | -9.06% |
| O=C([C@@H]1CCO[C@@H]2CCN(CC3CCOCC3)C[C@H]21)N1CCCC1 | -12.7% |
| CC(C)NC(=O)N1CCC2(CC1)CC[C@@]1(C(=O)N(C)C)CN(C)C[C@@H]21 | -11.9% |
| Cc1nc([C@H]2C[C@@H]3CCN(Cc4ccc5c(c4)OCO5)C[C@H]3O2)no1 | -12.3% |
| Cc1csc(CN2C[C@@H]3CN(S(C)(=O)=O)CCO[C@@H]3C2)n1 | 5.33% |
| Cn1cccc1C(=O)N1C[C@H]2CN(CC3CC3)C(=O)[C@H]2C1 | 6.81% |
| COCCn1c2c(ccc1=O)CC(NC(=O)c1cscn1)CC2 (configuration not stated) | -4.76% |
| O=C1NCCO[C@H]2CN(C(=O)CC3Cc4ccccc4C3)CC[C@@H]12 | -9.87% |
| CC(C)CN1C[C@@H]2CN(C(=O)c3cccn3C)C[C@@H]2C1=O | -7.2% |
| O=C(C1CC1)N1CCOC2(CCNCC2)C1 | -10.9% |
| CN(Cc1cccnc1)Cc1cncc2c1CCN(Cc1ccoc1)C2 | -7.08% |
| CN(Cc1cccnc1)Cc1cncc2c1CCN(c1ccccn1)C2 | 2.24% |
| COCCN1CCc2c(CNC(=O)c3nccn3C)cncc2C1 | 3.83% |
| CS(=O)(=O)N1CC[C@H]2OCC[C@@]2(C(=O)NCCc2ccccn2)C1 | -7.11% |
| CC(C)NC(=O)N1CCN(CCn2cccn2)c2ncccc2C1 | -2.7% |
| CCC(=O)N1CCN(CCn2cccn2)c2ncccc2C1 | 12.9% |
| O=C(c1ccncc1)N1CCC2(CCCN(c3ncc(F)cn3)C2)C1 (configuration not stated) | -2.34% |
| NC(=O)C1Cn2ccnc2C2(CCN(C(=O)NC3CCCC3)CC2)O1 (configuration not stated) | -8.91% |
| O=C(COC[C@@]12CCC[C@@H]1CN(C1CCC1)C2)N1CCCC1 | -9.27% |

| Compound | cytotoxicity at 70.5 h |
| --- | --- |
| CC(C)Nc1nc(-c2ccccc2)nc2c1CCN(C(=O)C1CC1)CC2 | -9.57% |
| CN(C)C(=O)COC[C@]12COC[C@H]1CN(C1CCCC1)C2 | -8.08% |
| Cc1oncc1C(=O)N[C@@H]1CN(Cc2ccco2)C[C@@H]2CCCO[C@@H]21 | -3.33% |
| CC(C)CC(=O)N1CCC2(CC1)OC(C(N)=O)Cn1ccnc12 (configuration not stated) | -8.87% |
| CN1CCC2(CC1)CC(NC(=O)c1csnn1)c1ccccc1O2 (configuration not stated) | -0.343% |
| CC(C)N1[C@H](Cn2cncn2)C[C@@H]2CN(Cc3cccs3)CC[C@@H]21 | -0.112% |
| CN(C)C1CC2(CCN(C(=O)C3(C#N)CC3)CC2)c2ccccc21 (configuration not stated) | -10.7% |
| CCN1C[C@H]2C3(CCN(C(=O)NC(C)C)CC3)CC[C@@]2(C(=O)NC)C1 | -11.3% |
| CCN1C[C@H]2C3(CCN(C(C)=O)CC3)CC[C@@]2(C(=O)N(C)C)C1 | -8.84% |
| O=C(c1ccncc1F)N1Cc2nc(COCC3CC3)oc2C1 | -15.8% |
| CO[C@@H]1CC[C@H]2[C@H]1OCCN2CCOCc1ccccc1 | -12.3% |
| CO[C@H]1CC[C@H]2[C@H]1OCCN2CCOCc1ccccc1 | -11.7% |
| CC(C)N1[C@H](Cn2cncn2)C[C@@H]2CN(Cc3ccsc3)CC[C@@H]21 | -2.74% |
| O=C(NC1CC1)N1CCC2(CC1)CC(N1CCOCC1)c1ccccc12 (configuration not stated) | -10.8% |
| Cc1cccc(CN2CCC3(CCCN(CC(=O)N(C)C)C3)C2)n1 (configuration not stated) | 7.75% |
| Cc1ccc(N2CCC3(CC2)CC(OCC(C)C)C3)nn1 | -8.68% |
| Cc1ccc(CN2CCC[C@]3(C(=O)O)CN(CC4CC4)C[C@@H]3C2)s1 | -6.54% |
| CN1CCO[C@@H]2CN(C(=O)c3ccc4ncccc4c3)CC[C@@H]2C1 | -8.09% |
| CCOCCN1CCO[C@H]2[C@H](OCc3ccccn3)CC[C@@H]21 | -11% |
